{
  "source": "patent US6565830B1",
  "about": "“DTPA monoamides, pharmaceutical agents containing these compounds, their use and process for their production” (Schering Aktiengesellschaft, priority 1990, dated 2003)",
  "key": {"liver": {"system": "liver", "assay": "In vivo NMR diagnosis (MRI) after oral administration, rat", "details": "p.o. 0.5 mmol of Gd/kg", "excerpt": "This finding agrees very well with the pharmacokinetic data."}, "Brown-Pearce tumor": {"system": "Brown-Pearce tumor", "assay": "In vivo NMR diagnosis (MRI) after intravenous administration, rat with Brown-Pearce tumor in the liver", "details": "i.v. 0.1 mmol of Gd/kg", "method": "A cell suspension of the Brown-Pearce tumor was injected in the liver in a test animal (rat, strain lew/mol, female, 155 g) two weeks before the test. In the method used, about 2 weeks were required until the tumor had reached the size of 0.5-1 cm^3 desired for the test.\nFor the test, the animal was anesthetized (Rompun+Ketavet) and then a catheter was placed in the caudal vein for the administration of the contrast medium.\nThe imaging took place in an MRI experimental device of the General Electric company (field strength 2 teslas). The first image was made without contrast media with a T1-weighted spin echo sequence (TR=400 msec, TE=20 msec, layer thickness 3 mm)."}, "human serum albumin": {"target": "human serum albumin (Homo sapiens, UniProt P02768)", "sequence (P02768 25-609)": "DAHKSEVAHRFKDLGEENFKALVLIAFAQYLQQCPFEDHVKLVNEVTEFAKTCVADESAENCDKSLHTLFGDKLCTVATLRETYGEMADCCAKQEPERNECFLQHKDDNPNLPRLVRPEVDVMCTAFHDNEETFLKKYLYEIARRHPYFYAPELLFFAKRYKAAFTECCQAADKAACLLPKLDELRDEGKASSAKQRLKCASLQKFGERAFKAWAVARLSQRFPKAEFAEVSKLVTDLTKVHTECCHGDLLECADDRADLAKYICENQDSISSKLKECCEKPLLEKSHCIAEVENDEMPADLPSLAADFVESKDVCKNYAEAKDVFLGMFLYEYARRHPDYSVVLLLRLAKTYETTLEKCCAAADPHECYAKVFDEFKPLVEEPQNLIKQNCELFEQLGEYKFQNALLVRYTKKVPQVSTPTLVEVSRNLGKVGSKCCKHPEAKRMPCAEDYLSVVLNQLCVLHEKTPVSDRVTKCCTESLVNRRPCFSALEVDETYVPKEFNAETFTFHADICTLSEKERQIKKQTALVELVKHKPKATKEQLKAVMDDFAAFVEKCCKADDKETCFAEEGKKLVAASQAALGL", "assay": "Association with human serum albumin in aqueous solution", "format": "binding"}, "[1]": {"details": "cited from earlier work"}},
  "data": [
    {"smiles": "O=C(O)CCCCCCCCCCNC(=O)CN(CCN(CCN(CC(=O)O)CC(=O)O)CC(=O)O)CC(=O)O.[Gd]", "note": "[Example 1b, Gadolinium complex of 3,6-bis(carboxymethyl)-9-(10-carboxydecylcarbamoylmethyl)-3,6,9-triazaundecanedioic acid]", "values": [
      {"measurement": "resorption after oral administration", "setting": "liver", "value": "resorbed in the small intestine after oral administration and is immediately taken up again for the most part by the liver"},
      {"measurement": "signal in the liver in MRI image", "setting": "liver; 45 minutes after administration (image 3)", "value": "slight increase in the signal in the liver"},
      {"measurement": "enhancement in the liver in MRI image", "setting": "liver; 180 minutes after administration (image 4)", "value": "marked enhancement"},
      {"measurement": "secretion in the stomach", "setting": "Brown-Pearce tumor", "value": "secreted in the stomach"},
      {"measurement": "distribution of contrast medium between liver and tumor", "setting": "Brown-Pearce tumor; 60 minutes", "value": "concentrated in the liver to a great extent, but, not in the tumor"},
      {"measurement": "enhancement of the stomach in MRI image", "setting": "Brown-Pearce tumor; 60 minutes (image no. 2)", "value": "very strong enhancement"},
      {"measurement": "appearance of liver tumor in MRI image", "setting": "Brown-Pearce tumor; 60 minutes after administration", "value": "considerably darker in comparison with the surrounding liver tissue"},
      {"measurement": "signal intensity of liver parenchyma in MRI image", "setting": "Brown-Pearce tumor; 60 minutes after administration, T1-weighted spin echo, 2 teslas", "value": "very bright"}
    ]},
    {"smiles": "CCCCCCC(CCCCCCCCCCC(=O)O)NC(=O)CN(CCN(CCN(CC(=O)O)CC(=O)O)CC(=O)O)CC(=O)O.[Gd]", "note": "(centres unmarked) [Example 4b, Gadolinium complex of 3,6-bis(carboxymethyl)-9-(11-carboxy-1-n-hexyl-undecylcarbamoylmethyl)-3,6,9-triazaundecanedioic acid]", "values": [
      {"measurement": "association with human serum albumin", "setting": "human serum albumin", "value": "forms associates"}
    ]},
    {"smiles": "CNC[C@H](O)[C@@H](O)[C@H](O)[C@H](O)CO.CNC[C@H](O)[C@@H](O)[C@H](O)[C@H](O)CO.O=C([O-])CN(CCN(CC(=O)[O-])CC(=O)O)CCN(CC(=O)[O-])CC(=O)O.[Gd+3]", "note": "[Magnevist, gadolinium(III) complex of diethylenetriaminepentaacetic acid]", "values": [
      {"measurement": "distribution after intravenous injection", "setting": "[1]", "value": "spreads extracellularly"},
      {"measurement": "route of elimination after intravenous injection", "setting": "[1]", "value": "eliminated by glomerular secretion through the kidneys"}
    ]}
  ]
}
